According to ChEMBL document CHEMBL3112480, “γ-Alkylidene-γ-lactones and isobutylpyrrol-2(5H)-ones analogues to rubrolides as inhibitors of biofilm formation by gram-positive and gram-negative bacteria” (Bioorg Med Chem Lett, 2014):
≈ marks a conversion by molar mass, not a printed value.

Experiments:
Streptococcus mutans [1] = experiment: Antibacterial activity against Streptococcus mutans ATCC 25175 assessed as effect on planktonic growth at 21.9 ug/ml after 20 hrs relative to control; type: functional
Streptococcus mutans [2] = experiment: Antibacterial activity against Streptococcus mutans ATCC 25175 assessed as effect on planktonic growth at 43.8 ug/ml after 20 hrs relative to control; type: functional
Streptococcus mutans [3] = experiment: Antibacterial activity against Streptococcus mutans ATCC 25175 assessed as effect on planktonic growth at 87.5 ug/ml after 20 hrs relative to control; type: functional
Staphylococcus aureus [4] = experiment: Antibacterial activity against Staphylococcus aureus ATCC 25923 assessed as effect on planktonic growth at 0.17 ug/ml after 20 hrs relative to control; type: functional
Staphylococcus aureus [5] = experiment: Antibacterial activity against Staphylococcus aureus ATCC 25923 assessed as effect on planktonic growth at 0.34 ug/ml after 20 hrs relative to control; type: functional
Staphylococcus aureus [6] = experiment: Antibacterial activity against Staphylococcus aureus ATCC 25923 assessed as effect on planktonic growth at 0.68 ug/ml after 20 hrs relative to control; type: functional
Staphylococcus aureus [7] = experiment: Antibacterial activity against Staphylococcus aureus ATCC 25923 assessed as effect on planktonic growth at 1.37 ug/ml after 20 hrs relative to control; type: functional
Staphylococcus aureus [8] = experiment: Antibacterial activity against Staphylococcus aureus ATCC 25923 assessed as effect on planktonic growth at 5.5 ug/ml after 20 hrs relative to control; type: functional
Staphylococcus aureus [9] = experiment: Antibacterial activity against Staphylococcus aureus ATCC 25923 assessed as effect on planktonic growth at 2.73 ug/ml after 20 hrs relative to control; type: functional
Staphylococcus aureus [10] = experiment: Antibacterial activity against Staphylococcus aureus ATCC 25923 assessed as effect on planktonic growth at 10.9 ug/ml after 20 hrs relative to control; type: functional
Staphylococcus aureus [11] = experiment: Antibacterial activity against Staphylococcus aureus ATCC 25923 assessed as effect on planktonic growth at 21.9 ug/ml after 20 hrs relative to control; type: functional
Staphylococcus aureus [12] = experiment: Antibacterial activity against Staphylococcus aureus ATCC 25923 assessed as effect on planktonic growth at 43.8 ug/ml after 20 hrs relative to control; type: functional
Staphylococcus aureus [13] = experiment: Antibacterial activity against Staphylococcus aureus ATCC 25923 assessed as effect on planktonic growth at 87.5 ug/ml after 20 hrs relative to control; type: functional
Pseudomonas aeruginosa [14] = experiment: Antibacterial activity against Pseudomonas aeruginosa ATCC 27853 assessed as effect on planktonic growth at 0.17 ug/ml after 20 hrs relative to control; type: functional
Pseudomonas aeruginosa [15] = experiment: Antibacterial activity against Pseudomonas aeruginosa ATCC 27853 assessed as effect on planktonic growth at 0.34 ug/ml after 20 hrs relative to control; type: functional
Pseudomonas aeruginosa [16] = experiment: Antibacterial activity against Pseudomonas aeruginosa ATCC 27853 assessed as effect on planktonic growth at 0.68 ug/ml after 20 hrs relative to control; type: functional
Pseudomonas aeruginosa [17] = experiment: Antibacterial activity against Pseudomonas aeruginosa ATCC 27853 assessed as effect on planktonic growth at 1.37 ug/ml after 20 hrs relative to control; type: functional
Pseudomonas aeruginosa [18] = experiment: Antibacterial activity against Pseudomonas aeruginosa ATCC 27853 assessed as effect on planktonic growth at 2.73 ug/ml after 20 hrs relative to control; type: functional
Pseudomonas aeruginosa [19] = experiment: Antibacterial activity against Pseudomonas aeruginosa ATCC 27853 assessed as effect on planktonic growth at 5.5 ug/ml after 20 hrs relative to control; type: functional
Pseudomonas aeruginosa [20] = experiment: Antibacterial activity against Pseudomonas aeruginosa ATCC 27853 assessed as effect on planktonic growth at 10.9 ug/ml after 20 hrs relative to control; type: functional
Pseudomonas aeruginosa [21] = experiment: Antibacterial activity against Pseudomonas aeruginosa ATCC 27853 assessed as effect on planktonic growth at 21.9 ug/ml after 20 hrs relative to control; type: functional
Pseudomonas aeruginosa [22] = experiment: Antibacterial activity against Pseudomonas aeruginosa ATCC 27853 assessed as effect on planktonic growth at 43.8 ug/ml after 20 hrs relative to control; type: functional
Pseudomonas aeruginosa [23] = experiment: Antibacterial activity against Pseudomonas aeruginosa ATCC 27853 assessed as effect on planktonic growth at 87.5 ug/ml after 20 hrs relative to control; type: functional
[24] = tested on: Staphylococcus epidermidis; experiment: Antibacterial activity against Staphylococcus epidermidis ATCC 35547 assessed as effect on planktonic growth at 0.17 ug/ml after 20 hrs relative to control; type: functional
[25] = tested on: Staphylococcus epidermidis; experiment: Antibacterial activity against Staphylococcus epidermidis ATCC 35547 assessed as effect on planktonic growth at 0.34 ug/ml after 20 hrs relative to control; type: functional
[26] = tested on: Staphylococcus epidermidis; experiment: Antibacterial activity against Staphylococcus epidermidis ATCC 35547 assessed as effect on planktonic growth at 0.68 ug/ml after 20 hrs relative to control; type: functional
[27] = tested on: Staphylococcus epidermidis; experiment: Antibacterial activity against Staphylococcus epidermidis ATCC 35547 assessed as effect on planktonic growth at 1.37 ug/ml after 20 hrs relative to control; type: functional
[28] = tested on: Staphylococcus epidermidis; experiment: Antibacterial activity against Staphylococcus epidermidis ATCC 35547 assessed as effect on planktonic growth at 2.73 ug/ml after 20 hrs relative to control; type: functional
[29] = tested on: Staphylococcus epidermidis; experiment: Antibacterial activity against Staphylococcus epidermidis ATCC 35547 assessed as effect on planktonic growth at 5.5 ug/ml after 20 hrs relative to control; type: functional
[30] = tested on: Staphylococcus epidermidis; experiment: Antibacterial activity against Staphylococcus epidermidis ATCC 35547 assessed as effect on planktonic growth at 10.9 ug/ml after 20 hrs relative to control; type: functional
[31] = tested on: Staphylococcus epidermidis; experiment: Antibacterial activity against Staphylococcus epidermidis ATCC 35547 assessed as effect on planktonic growth at 21.9 ug/ml after 20 hrs relative to control; type: functional
[32] = tested on: Staphylococcus epidermidis; experiment: Antibacterial activity against Staphylococcus epidermidis ATCC 35547 assessed as effect on planktonic growth at 43.8 ug/ml after 20 hrs relative to control; type: functional
[33] = tested on: Staphylococcus epidermidis; experiment: Antibacterial activity against Staphylococcus epidermidis ATCC 35547 assessed as effect on planktonic growth at 87.5 ug/ml after 20 hrs relative to control; type: functional
Staphylococcus aureus [34] = experiment: Induction of biofilm formation in Staphylococcus aureus ATCC 25923 at 44 ug/ml after 20 hrs by crystal-violet staining method relative to control; type: organism-based
Pseudomonas aeruginosa [35] = experiment: Antibacterial activity against Pseudomonas aeruginosa ATCC 27853 assessed as inhibition of biofilm formation after 20 hrs by crystal-violet staining method; type: functional, organism-based
[36] = tested on: Staphylococcus epidermidis; experiment: Antibacterial activity against Staphylococcus epidermidis ATCC 35547 assessed as inhibition of biofilm formation after 20 hrs by crystal-violet staining method; type: functional, organism-based
Streptococcus mutans [37] = experiment: Antibacterial activity against Streptococcus mutans ATCC 25175 assessed as effect on planktonic growth at 0.17 ug/ml after 20 hrs relative to control; type: functional
Streptococcus mutans [38] = experiment: Antibacterial activity against Streptococcus mutans ATCC 25175 assessed as effect on planktonic growth at 0.34 ug/ml after 20 hrs relative to control; type: functional
Streptococcus mutans [39] = experiment: Antibacterial activity against Streptococcus mutans ATCC 25175 assessed as effect on planktonic growth at 0.68 ug/ml after 20 hrs relative to control; type: functional
Streptococcus mutans [40] = experiment: Antibacterial activity against Streptococcus mutans ATCC 25175 assessed as effect on planktonic growth at 1.37 ug/ml after 20 hrs relative to control; type: functional
Streptococcus mutans [41] = experiment: Antibacterial activity against Streptococcus mutans ATCC 25175 assessed as effect on planktonic growth at 2.73 ug/ml after 20 hrs relative to control; type: functional
Streptococcus mutans [42] = experiment: Antibacterial activity against Streptococcus mutans ATCC 25175 assessed as effect on planktonic growth at 5.5 ug/ml after 20 hrs relative to control; type: functional
Streptococcus mutans [43] = experiment: Antibacterial activity against Streptococcus mutans ATCC 25175 assessed as effect on planktonic growth at 10.9 ug/ml after 20 hrs relative to control; type: functional

In the case of COc1ccc(C)cc1C1=C(Br)C(=O)N(CC(C)C)/C1=C\c1ccccc1Cl, the Activity (Streptococcus mutans [1]) is reported as 14.6%, the Activity (Streptococcus mutans [2]) is reported as 19.2% and the Activity (Streptococcus mutans [3]) is reported as 49.5%. For the same compound, the Activity (Staphylococcus aureus [4]) was -4.2%, the Activity (Staphylococcus aureus [5]) was -3.3% and the Activity (Staphylococcus aureus [6]) was -4.9%. It also gave an Activity (Staphylococcus aureus [7]) of -13.4%, an Activity (Staphylococcus aureus [8]) of -12% and an Activity (Staphylococcus aureus [9]) of -6.6%. For the same compound, the Activity (Staphylococcus aureus [10]) was -13.4%, the Activity (Staphylococcus aureus [11]) was -6.3% and the Activity (Staphylococcus aureus [12]) was 8.9%. For the same compound, the Activity (Staphylococcus aureus [13]) was 33.8%, the Activity (Pseudomonas aeruginosa [14]) was -1.9% and the Activity (Pseudomonas aeruginosa [15]) was -5.5%. For the same compound, the Activity (Pseudomonas aeruginosa [16]) was -7.7%, the Activity (Pseudomonas aeruginosa [17]) was -10.6% and the Activity (Pseudomonas aeruginosa [18]) was -6%. For the same compound, the Activity (Pseudomonas aeruginosa [19]) was -13.8%, the Activity (Pseudomonas aeruginosa [20]) was -13.8% and the Activity (Pseudomonas aeruginosa [21]) was -13.3%. It also gave an Activity (Pseudomonas aeruginosa [22]) of -11.1%, an Activity (Pseudomonas aeruginosa [23]) of 0.8% and an Activity [24] of 4%. The Activity [25] was 17.8%, the Activity [26] was 3.4% and the Activity [27] was -4.4%. The Activity [28] was -5.5%, the Activity [29] was 3.3% and the Activity [30] was 13.1%. It also gave an Activity [31] of 31.7%, an Activity [32] of 46.4% and an Activity [33] of 65.8%. For the same compound, the Activity (Staphylococcus aureus [34]) was 3.6%, the inhibition (Pseudomonas aeruginosa [35]) was “Dose-dependent effect” and the IC50 (Pseudomonas aeruginosa [35]; ATCC 27853, 20 h) was 5.7 µg/mL (≈ 12.4 µM). The inhibition [36] was “Dose-dependent effect”, the IC50 ([36]; ATCC 35547, 20 h) was over 87.5 µg/mL and the Activity (Streptococcus mutans [37]) was -4.6%. For the same compound, the Activity (Streptococcus mutans [38]) was -1.4%, the Activity (Streptococcus mutans [39]) was -2.1% and the Activity (Streptococcus mutans [40]) was -0.4%. For the same compound, the Activity (Streptococcus mutans [41]) was 3.9%, the Activity (Streptococcus mutans [42]) was 8.9% and the Activity (Streptococcus mutans [43]) was 7.8%.
